Data published in patent US4435583A, “2-Halo-substituted monic acid A useful as antibacterial compounds” (Beecham Group p.l.c., priority 1981, dated 1984).
Values after ≈ are worked out from the molar mass of the structure shown.

How the values were obtained:
Type in all cases: cell-based
Strep. 2788-B = experiment: MIC against human bacteria; settings: 18 h, nutrient agar, 5% chocolated horse blood, 37° C., read-out: MIC
Experimental: (§1) The values were determined by serial dilutions in nutrient agar with 5% chocolated horse blood after incubations for 18 hours at 37° C.

Bacillus subtilis 6633 = experiment: MIC against human bacteria; settings: Bacillus subtilis, 6633, 18 h, nutrient agar, 5% chocolated horse blood, 37° C., read-out: MIC
Experimental: as §1

[1] = tested on: Neisseria catarrhalis 1502; experiment: MIC against human bacteria; settings: Neisseria, 1502, 18 h, nutrient agar, 5% chocolated horse blood, 37° C., read-out: MIC
Experimental: as §1

P. mirabilis 889 = experiment: MIC against human bacteria; settings: Proteus mirabilis, nutrient agar, 5% chocolated horse blood, 18 hours, 37° C., read-out: MIC
Experimental: as §1

K. aerogenes A = experiment: MIC against human bacteria; settings: Klebsiella aerogenes, nutrient agar, 5% chocolated horse blood, 18 hours, 37° C., read-out: MIC
Experimental: as §1

[2] = tested on: Ps. aeruginosa NCTC 10662; experiment: MIC against human bacteria; settings: Pseudomonas aeruginosa, NCTC10662, nutrient agar, 5% chocolated horse blood, 18 hours, 37° C., read-out: MIC
Experimental: as §1

Past. multocida 1633 = experiment: MIC against human bacteria; settings: Pasteurella multocida, 1633, 18 h, nutrient agar, 5% chocolated horse blood, 37° C., read-out: MIC
Experimental: as §1

E. coli NCTC 10418 [3] = experiment: MIC against human bacteria; settings: Escherichia coli, NCTC10418, nutrient agar, 5% chocolated horse blood, 18 hours, 37° C., read-out: MIC
Experimental: as §1

Staph. aureus Russell = experiment: MIC against human bacteria; settings: Staphylococcus aureus, 18 h, nutrient agar, 5% chocolated horse blood, 37° C., read-out: MIC
Experimental: as §1

Staph. aureus W2827 = experiment: MIC against human bacteria; settings: Staphylococcus aureus, W2827, 18 h, nutrient agar, 5% chocolated horse blood, 37° C., read-out: MIC
Experimental: as §1

Strep. 641848-C = experiment: MIC against human bacteria; settings: 18 h, nutrient agar, 5% chocolated horse blood, 37° C., read-out: MIC
Experimental: as §1

[4] = tested on: Strep. pyrogenes R80/421-A; experiment: MIC against human bacteria; settings: 18 h, nutrient agar, 5% chocolated horse blood, 37° C., read-out: MIC
Experimental: as §1

Strep. pneumoniae CN33 = experiment: MIC against human bacteria; settings: Streptococcus pneumoniae, CN33, 18 h, nutrient agar, 5% chocolated horse blood, 37° C., read-out: MIC
Experimental: as §1

E. coli ESS = experiment: MIC against human bacteria; settings: Escherichia coli, 18 h, nutrient agar, 5% chocolated horse blood, 37° C., read-out: MIC
Experimental: as §1

[5] = tested on: Haemophilus influenzae Q1; experiment: MIC against human bacteria; settings: nutrient agar, 5% chocolated horse blood, 18 hours, 37° C., read-out: MIC
Experimental: as §1

[6] = tested on: Corynebacterium xerosis 9755; experiment: MIC against human bacteria; settings: nutrient agar, 5% chocolated horse blood, 18 hours, 37° C., read-out: MIC
Experimental: as §1

Sarcina lutea 8340 = experiment: MIC against human bacteria; settings: Micrococcus luteus, nutrient agar, 5% chocolated horse blood, 18 hours, 37° C., read-out: MIC
Experimental: as §1

Strep. faecalis I = experiment: MIC against human bacteria; settings: Enterococcus faecalis, nutrient agar, 5% chocolated horse blood, 18 hours, 37° C., read-out: MIC
Experimental: as §1

Staph. aureus Oxford [7] = experiment: MIC against human bacteria; settings: Staphylococcus aureus, 18 h, nutrient agar, 5% chocolated horse blood, 37° C., read-out: MIC
Experimental: as §1

Staph. aureus 152 = experiment: MIC against veterinary bacteria; settings: Staphylococcus aureus, 152, 18 h, Diagnostic Sensitivity Test Agar, 37° C., read-out: MIC
Experimental: (§2) The values were determined using a two fold serial dilutions in Diagnostic Sensitivity Test Agar with an inoculum of 10^4 organisms and incubation for 18 hours at 37° C.

[8] = tested on: Erysipelothrix rhusiopathiae NCTC 8163; experiment: MIC against veterinary bacteria; settings: NCTC8163, Diagnostic Sensitivity Test Agar, 18 hours, 37° C., read-out: MIC
Experimental: as §2

Bord. bronchiseptica B08 = experiment: MIC against veterinary bacteria; settings: Bordetella bronchiseptica, B08, 18 h, Diagnostic Sensitivity Test Agar, 37° C., read-out: MIC
Experimental: as §2

S. typhimurium S18 = experiment: MIC against veterinary bacteria; settings: Salmonella enterica, Diagnostic Sensitivity Test Agar, 18 hours, 37° C., read-out: MIC
Experimental: as §2

Strep. dysgalactiae SPD1 = experiment: MIC against veterinary bacteria; settings: Streptococcus dysgalactiae, SPD1, 18 h, Diagnostic Sensitivity Test Agar, 37° C., read-out: MIC
Experimental: as §2

Strep. uberis SPU1 = experiment: MIC against veterinary bacteria; settings: Streptococcus uberis, SPU1, 18 h
Experimental: as §2

[9] = tested on: Strep. suis (group D) SPS11; experiment: MIC against veterinary bacteria; settings: Streptococcus suis, 18 h, Diagnostic Sensitivity Test Agar, 37° C., read-out: MIC
Experimental: as §2

Past. haemolytica PA5 = experiment: MIC against veterinary bacteria; settings: Mannheimia haemolytica, PA5, 18 h, Diagnostic Sensitivity Test Agar, 37° C., read-out: MIC
Experimental: as §2

E. coli NCTC 10418 [10] = experiment: MIC against veterinary bacteria; settings: Escherichia coli, NCTC10418, Diagnostic Sensitivity Test Agar, 18 hours, 37° C., read-out: MIC
Experimental: as §2

Past. multocida PA2 = experiment: MIC against veterinary bacteria; settings: Pasteurella multocida, PA2, 18 h, Diagnostic Sensitivity Test Agar, 37° C., read-out: MIC
Experimental: as §2

S. dublin S7 = experiment: MIC against veterinary bacteria; settings: Salmonella enterica, Diagnostic Sensitivity Test Agar, 18 hours, 37° C., read-out: MIC
Experimental: as §2

Strep. agalactiae SPA1 = experiment: MIC against veterinary bacteria; settings: Streptococcus agalactiae, SPA1, 18 h, Diagnostic Sensitivity Test Agar, 37° C., read-out: MIC
Experimental: as §2

Bord. bronchiseptica B09 = experiment: MIC against veterinary bacteria; settings: Bordetella bronchiseptica, B09, 18 h, Diagnostic Sensitivity Test Agar, 37° C., read-out: MIC
Experimental: as §2

E. coli E1 = experiment: MIC against veterinary bacteria; settings: Escherichia coli, Diagnostic Sensitivity Test Agar, 18 hours, 37° C., read-out: MIC
Experimental: as §2

Staph. aureus B4 = experiment: MIC against veterinary bacteria; settings: Staphylococcus aureus, B4, 18 h, Diagnostic Sensitivity Test Agar, 37° C., read-out: MIC
Experimental: as §2

Past. multocida PA1 = experiment: MIC against veterinary bacteria; settings: Pasteurella multocida, PA1, 18 h, Diagnostic Sensitivity Test Agar, 37° C., read-out: MIC
Experimental: as §2

[11] = tested on: Corynebacterium pyogenes CY1; experiment: MIC against veterinary bacteria; settings: Rhodococcus (subgen. Prescottella) equi, Diagnostic Sensitivity Test Agar, 18 hours, 37° C., read-out: MIC
Experimental: as §2

Staph. aureus Oxford [12] = experiment: MIC against veterinary bacteria; settings: Staphylococcus aureus, 18 h, Diagnostic Sensitivity Test Agar, 37° C., read-out: MIC
Experimental: as §2

## CC(CC1OCC(CC2OC2C(C)C(C)O)C(O)C1O)=C(F)C(=O)OCc1cccc([N+](=O)[O-])c1 [Example 4, 3-Nitrobenzyl 4-[5S-(2S,3S-epoxy-5S-hydroxy-4S-methylhexyl)-3R,4R-dihydroxytetrahydropyran-2S-yl]-2-fluoro-3-methylbut-2(Z)-enoate]
Strep. 2788-B
  MIC: 2.5 µg/mL (≈ 5.02 µM)
Bacillus subtilis 6633
  MIC: 0.5 µg/mL (≈ 1 µM)
[1]
  MIC: 0.5 µg/mL (≈ 1 µM)
P. mirabilis 889
  MIC: > 100 µg/mL
K. aerogenes A
  MIC: > 100 µg/mL
[2]
  MIC: > 100 µg/mL
Past. multocida 1633
  MIC: 2.5 µg/mL (≈ 5.02 µM)
E. coli NCTC 10418 [3]
  MIC: > 100 µg/mL
Staph. aureus Russell
  MIC: 2.5 µg/mL (≈ 5.02 µM)
Staph. aureus W2827
  MIC: 2.5 µg/mL (≈ 5.02 µM)
Strep. 641848-C
  MIC: 0.5 µg/mL (≈ 1 µM)
[4]
  MIC: 0.5 µg/mL (≈ 1 µM)
Strep. pneumoniae CN33
  MIC: 0.5 µg/mL (≈ 1 µM)
E. coli ESS
  MIC: 1 µg/mL (≈ 2.01 µM)
[5]
  MIC: 0.5 µg/mL (≈ 1 µM)
[6]
  MIC: > 100 µg/mL
Sarcina lutea 8340
  MIC: > 100 µg/mL
Strep. faecalis I
  MIC: > 100 µg/mL
Staph. aureus Oxford [7]
  MIC: 2.5 µg/mL (≈ 5.02 µM)
Staph. aureus 152
  MIC: 1.25 µg/mL (≈ 2.51 µM)
[8]
  MIC: 80 µg/mL (≈ 161 µM)
Bord. bronchiseptica B08
  MIC: 80 µg/mL (≈ 161 µM)
S. typhimurium S18
  MIC: > 80 µg/mL
Strep. dysgalactiae SPD1
  MIC: 0.312 µg/mL (≈ 0.627 µM)
Strep. uberis SPU1
  MIC: 0.156 µg/mL (≈ 0.314 µM)
[9]
  MIC: 5 µg/mL (≈ 10 µM)
Past. haemolytica PA5
  MIC: 10 µg/mL (≈ 20.1 µM)
E. coli NCTC 10418 [10]
  MIC: > 80 µg/mL
Past. multocida PA2
  MIC: 0.312 µg/mL (≈ 0.627 µM)
S. dublin S7
  MIC: > 80 µg/mL
Strep. agalactiae SPA1
  MIC: 1.25 µg/mL (≈ 2.51 µM)
Bord. bronchiseptica B09
  MIC: 10 µg/mL (≈ 20.1 µM)
E. coli E1
  MIC: > 80 µg/mL
Staph. aureus B4
  MIC: 2.5 µg/mL (≈ 5.02 µM)
Past. multocida PA1
  MIC: 0.625 µg/mL (≈ 1.26 µM)
[11]
  MIC: 80 µg/mL (≈ 161 µM)
Staph. aureus Oxford [12]
  MIC: 1.25 µg/mL (≈ 2.51 µM)
